ChEMBL document CHEMBL1140773, “Discovery of amide and heteroaryl isosteres as carbamate replacements in a series of orally active gamma-secretase inhibitors” (Bioorg Med Chem Lett, 2008)

assay: in vivo; settings: rat, plasma, po, 10 mg/kg

Row | SMILES | AUC(0-t) at 6 h
1 | O=C(CC1([C@H]2CCC[C@@H](C3CC3)N2S(=O)(=O)c2ccc(Cl)cc2)CC1)N1CC2CCC(C1)N2CCO (mixture of isomers) | 5810 ng·h/mL
2 | CC[C@@H]1CCC[C@H](C2(CC(=O)N3CC4CCC(C3)N4CCO)CC2)N1S(=O)(=O)c1ccc(Cl)cc1 (mixture of isomers) | 3220 ng·h/mL
3 | CC[C@@H]1CCC[C@H](C2(CC(=O)N3CC4CCC(C3)N4C)CC2)N1S(=O)(=O)c1ccc(Cl)cc1 (mixture of isomers) | 2650 ng·h/mL
4 | CC(C)(CO)N1CCN(C(=O)CC2([C@H]3CCC[C@@H](C4CC4)N3S(=O)(=O)c3ccc(Cl)cc3)CC2)CC1 (racemic) | 1350 ng·h/mL
5 | CC[C@@H]1CCC[C@H](C2(Cc3nc(CN(C)C(C)(C)CO)no3)CC2)N1S(=O)(=O)c1ccc(Cl)cc1 (racemic) | 973 ng·h/mL
6 | CC[C@@H]1CCC[C@H](C2(Cc3nc(CN4CCCC4)no3)CC2)N1S(=O)(=O)c1ccc(Cl)cc1 (racemic) | 26 ng·h/mL
7 | CC[C@@H]1CCC[C@H](C2(CC(=O)N3CCN4CCCC[C@H]4C3)CC2)N1S(=O)(=O)c1ccc(Cl)cc1 (racemic) | 419 ng·h/mL
8 | CN(Cc1noc(CC2([C@H]3CCC[C@@H](C4CC4)N3S(=O)(=O)c3ccc(Cl)cc3)CC2)n1)C(C)(C)CO (racemic) | 143 ng·h/mL
9 | CC[C@@H]1CCC[C@H](C2(CC(=O)N3CCC(N4CCCCC4)CC3)CC2)N1S(=O)(=O)c1ccc(Cl)cc1 (racemic) | 93 ng·h/mL
10 | CC[C@@H]1CCC[C@H](C2(CC(=O)N3CCN(C(C)(C)CO)CC3)CC2)N1S(=O)(=O)c1ccc(Cl)cc1 (racemic) | 1620 ng·h/mL
11 | O=C(CC1([C@H]2CCC[C@@H](C3CC3)N2S(=O)(=O)c2ccc(Cl)cc2)CC1)N1CCN2CCCC[C@H]2C1 (racemic) | 673 ng·h/mL
